Results taken from PubChem BioAssay AID434942 (Johns Hopkins Ion Channel Center, 2010).

Target: Short transient receptor potential channel 4 (Mus musculus) (UniProt Q9QUQ5)
Experiment: block of DAMGO-driven TRPC4 calcium entry – cell-based, HEK293 TRPC4/mu-opioid, Fluo-4 calcium, dose response (AID 434942);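 also: potency of inhibitors blocking the DAMGO-evoked TRPC4 calcium rise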
Details: HEK293 TRPC4/mu-opioid cells, DAMGO-evoked Fluo-4 calcium ratio

Chain of Short transient receptor potential channel 4 (Mus musculus) (Q9QUQ5 whole entry, looked up): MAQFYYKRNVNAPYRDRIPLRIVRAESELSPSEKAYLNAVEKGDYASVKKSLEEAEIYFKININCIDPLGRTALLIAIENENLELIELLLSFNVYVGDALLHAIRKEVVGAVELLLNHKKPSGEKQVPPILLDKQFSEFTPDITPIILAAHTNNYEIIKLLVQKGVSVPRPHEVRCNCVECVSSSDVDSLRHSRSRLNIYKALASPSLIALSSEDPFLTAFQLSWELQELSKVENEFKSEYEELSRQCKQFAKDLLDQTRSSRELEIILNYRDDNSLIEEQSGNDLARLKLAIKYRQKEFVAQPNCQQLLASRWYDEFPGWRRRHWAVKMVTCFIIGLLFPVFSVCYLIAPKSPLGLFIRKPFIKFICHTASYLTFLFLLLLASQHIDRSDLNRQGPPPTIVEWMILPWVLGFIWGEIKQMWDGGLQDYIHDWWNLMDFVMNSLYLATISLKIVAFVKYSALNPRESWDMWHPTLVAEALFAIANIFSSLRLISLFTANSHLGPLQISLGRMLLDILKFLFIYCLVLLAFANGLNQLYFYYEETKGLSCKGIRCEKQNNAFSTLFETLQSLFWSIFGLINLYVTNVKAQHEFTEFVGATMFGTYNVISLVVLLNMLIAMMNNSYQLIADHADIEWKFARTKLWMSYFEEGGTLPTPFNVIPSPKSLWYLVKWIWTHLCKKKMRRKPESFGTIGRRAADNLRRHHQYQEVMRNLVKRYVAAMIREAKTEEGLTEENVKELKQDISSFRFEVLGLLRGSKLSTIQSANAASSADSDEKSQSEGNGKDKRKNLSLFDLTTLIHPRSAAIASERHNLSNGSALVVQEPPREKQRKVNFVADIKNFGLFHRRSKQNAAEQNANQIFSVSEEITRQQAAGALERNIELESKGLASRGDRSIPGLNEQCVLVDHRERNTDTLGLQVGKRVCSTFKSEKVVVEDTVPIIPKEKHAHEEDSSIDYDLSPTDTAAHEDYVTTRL

IC50 [µM] | SMILES
1.5 | CC(=O)Nc1ccc(C2(c3ccc(NC(C)=O)cc3)C(=O)Nc3ccccc32)cc1
2.11 | CC1Cc2ccccc2N1C(=O)CSc1nc2c(c(=O)n(C)c(=O)n2C)n1Cc1ccccc1 (configuration not stated)
